Data taken from patent publication US9376421B2, “Compounds and methods for myotonic dystrophy therapy” (The Board of Trustees of the University of Illinois, priority 2014, dated 2016).

Tested on: d(CTG.CAG)12
Experiment: Isothermal titration calorimetry, d(CTG.CAG)12
Assay type: binding
Conditions: 25° C., 20 mM MOPS pH 7.0, 300 mM NaCl
Experimental: To directly assess the DNA-targeting ability of 9, ITC experiments were performed with oligonucleotide analogs of the various trinucleotide repeat sequences (Table 1). […] This supports the idea that 9 inhibits the transcription of CTG^exp by stabilizing its hairpin structure. […] The in vitro transcription experiment using (CTG[…]CAG)74 (SEQ ID NOS 3-4, respectively) and compounds 2, 5-7, and 9 was repeated but with (CUG)16 (SEQ ID NO: 1) added as a competitor.
Isothermal titration calorimetry (ITC) measurements were performed at 25° C. on a MicroCal VP-ITC (MicroCal, Inc., Northampton, Mass.). A standard experiment consisted of titrating 10 μL of a 500 μM ligand solution from a […] syringe (rotating at 300 rpm) into a sample cell containing 1.42 mL of a 10 μM DNA or RNA solution. An ITC experiment consisted of 28 total injections (first injection was 5 μL, subsequent injections were 10 μL), with a 10 s duration per injection and delay of 380 s between injections. The initial delay prior to the first injection was 300 s. To derive the heat associated with each injection, the area under each isotherm (microcalories per second versus seconds) was determined by integration by the graphing program Origin 7.0 (MicroCal, Inc. Northampton, Mass.). […]

## N=C(NCCCCNc1nc(N)nc(N)n1)c1ccc(C(=N)NCCCCNc2nc(N)nc(N)n2)cc1 [Ligand 2]
  binding affinity toward d(CTG.CAG)12 by ITC: lack of binding affinity
